We go through eleven molecules from ChEMBL document CHEMBL1201862, “PubChem BioAssay data set” (2004).

Test systems include A498; A549; HCT-15; HT-29; IGROV-1; MDA-MB-435; MOLT-4; NCI-H226; NCI-H460; OVCAR-8; PC-3; SF-539; SN12C; SNB-19; TK-10; U-251; UACC-257; UO-31; HOP-62; Malme-3M.
Holding throughout (assay): NCI anticancer screen, dose series, 48 h

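Briefly, cells in 96-well plates were exposed to five compound concentrations for 48 h, and endpoints were estimated by linear interpolation. GI50: concentration for 50% inhibition of growth.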 Calls of active or inactive are those of the source. No stated cut-off is given here; in the data, active = GI50 up to about 1.1 µM and inactive = higher. Some results are limits rather than exact numbers.

Turning to `CCCCCCCCCCCCCCCCOC[C@@H](COC(c1ccccc1)(c1ccccc1)c1ccccc1)O[PH](=S)OC` (some centres undefined), the GI50 in the test with A498 is 11.5 µM (inactive); in the test with A549, 5.61 µM (inactive); in the test on HCT-15, 10.6 µM; in the test with HT-29, 16.8 µM (inactive); in the test with IGROV-1, 13.7 µM (inactive); in the test with MDA-MB-435 it was 2.24 µM (inactive). Also, the GI50 is 20.4 µM (inactive) in the test on MOLT-4; 19.1 µM (inactive) with NCI-H226; 1.6 µM (inactive) in the test with NCI-H460; 12.1 µM (inactive) in the test with OVCAR-8; 5.32 µM (inactive) in the test on PC-3; 2.82 µM (inactive) with SF-539. For the same molecule, the GI50 was 5.32 µM (inactive) in the test on SN12C; 4.79 µM (inactive) in the test with SNB-19; 11.5 µM (inactive) in the test on TK-10; 4.04 µM (inactive) with U-251; 11.6 µM (inactive) in the test on UACC-257; 16.4 µM (inactive) with UO-31.
Turning to `CCCCCCCCC[C@@H]1C[C@@H]2CCC3C(C(=O)OCCCCNC(=O)OCc4ccccc4)=C(C)N=C(N1)N32` (some centres undefined), the GI50 was 4.66 µM (inactive) in the test on A498; 4.57 µM (inactive) with A549; 2.81 µM in the test with HCT-15; 3.75 µM (inactive) in the test with HOP-62; 3.29 µM (inactive) with HT-29; 2.43 µM (inactive) in the test with IGROV-1. Also, the GI50 with MDA-MB-435 is 2.78 µM (inactive); with MOLT-4, 2.59 µM (inactive); with NCI-H226 it was 3.58 µM (inactive); in the test on NCI-H460 it was 3.22 µM (inactive); in the test on OVCAR-8, 2.58 µM (inactive); with PC-3 it was 2.47 µM (inactive). In addition, the GI50 in the test on SF-539 is 3.86 µM (inactive); in the test on SN12C it was 3.13 µM (inactive); with SNB-19 it was 6.18 µM (inactive); with TK-10 it was 4.5 µM (inactive); in the test with U-251, 2.9 µM (inactive); with UACC-257 it was 3.27 µM (inactive). For the same molecule, the GI50 in the test with UO-31 is 4.49 µM (inactive).
`Cc1cc(-c2ccccc2)nc2oc(=O)n(C)c12`: the GI50 in the test on A498 is > 100 µM (inactive); in the test on A549, > 100 µM (inactive); in the test on HCT-15 it was more than 100 µM; with HOP-62, > 100 µM (inactive); in the test with HT-29, > 100 µM (inactive); with IGROV-1, 53.3 µM (inactive). In addition, the GI50 with MDA-MB-435 was > 100 µM (inactive); in the test with MOLT-4, > 100 µM (inactive); in the test on Malme-3M, > 100 µM (inactive); in the test on NCI-H226 it was > 100 µM (inactive); with NCI-H460, > 100 µM (inactive); with OVCAR-8, 90.4 µM (inactive). For the same molecule, the GI50 with PC-3 was > 100 µM (inactive); in the test with SN12C it was 71.8 µM (inactive); with SNB-19, > 100 µM (inactive); in the test on TK-10 it was 34.4 µM (inactive); in the test on U-251 it was 51.1 µM (inactive); in the test on UACC-257, > 100 µM (inactive). For the same molecule, in the test on UO-31, the GI50 is > 100 µM (inactive).
Regarding `CC[C@H](C)[C@H](NC(=O)N(CCC#N)CCN(CCN(C(=O)N[C@@H](Cc1ccccc1)C(=O)OC)c1ccccc1)C(=O)N[C@H](C(=O)OC)C(C)C)C(=O)OC`, the GI50 in the test with A498 is 19.6 µM (inactive); in the test with A549, 32.7 µM (inactive); in the test on HCT-15, 21.8 µM; in the test on HOP-62, 20.5 µM (inactive); in the test with IGROV-1 it was 19.1 µM (inactive); with MDA-MB-435, 16.6 µM (inactive). Besides, the GI50 in the test with MOLT-4 is 4.57 µM (inactive); with Malme-3M it was 17.2 µM (inactive); with NCI-H226, 21.5 µM (inactive); in the test on OVCAR-8, 22.6 µM (inactive); in the test on PC-3, 16.1 µM (inactive); in the test with SF-539 it was 23.6 µM (inactive). The GI50 in the test on SN12C was 25.6 µM (inactive); in the test with SNB-19, 15.2 µM (inactive); with TK-10, 18.3 µM (inactive); in the test on U-251 it was 16.2 µM (inactive); in the test with UACC-257 it was 13.5 µM (inactive); in the test on UO-31, 18.1 µM (inactive).
Consider `CCOC(=O)CC1(N)CC2c3ccccc3OC(=O)C2C(=O)N1` (centres undefined), for which the GI50 with A498 was > 100 µM (inactive); in the test with A549 it was > 100 µM (inactive); in the test with HCT-15 it was more than 100 µM; with HOP-62, > 100 µM (inactive); with HT-29 it was > 100 µM (inactive); in the test on IGROV-1, > 100 µM (inactive). The GI50 with MDA-MB-435, with MOLT-4, in the test on Malme-3M, in the test with NCI-H226, with NCI-H460 and in the test on OVCAR-8 was > 100 µM (inactive) throughout. Further, the GI50 in the test on PC-3, in the test with SN12C, in the test on SNB-19, in the test with TK-10, in the test on U-251 and in the test with UACC-257 was > 100 µM (inactive) throughout. Also, the GI50 in the test with UO-31 was > 100 µM (inactive).
As to `O=C(NNC(=S)NC1CCCCC1)c1csc(NC(=S)NC2CCCCC2)n1`, the GI50 is 21.5 µM (inactive) in the test with A498; 7.89 µM (inactive) in the test on A549; 0.463 µM in the test on HCT-15; 12.4 µM (inactive) in the test on HOP-62; > 100 µM (inactive) in the test on HT-29; 3.52 µM (inactive) with IGROV-1. Also, the GI50 was 10.8 µM (inactive) in the test with MDA-MB-435; 3.42 µM (inactive) in the test with MOLT-4; 11.2 µM (inactive) in the test with Malme-3M; 66.7 µM (inactive) in the test with NCI-H226; 2.25 µM (inactive) in the test with OVCAR-8; 10.9 µM (inactive) with PC-3. The GI50 with SF-539 is 4.58 µM (inactive); in the test with SN12C, 5.6 µM (inactive); in the test on SNB-19 it was 12 µM (inactive); in the test with TK-10, 6.38 µM (inactive); in the test on U-251, 5.73 µM (inactive); in the test with UACC-257, 3.24 µM (inactive). The GI50 in the test on UO-31 is 0.948 µM (active).
As to `CCC(C)C(Nc1c2ccccc2nc2c(C(=O)NCCN(C)C)cccc12)C(=O)O` (centres undefined), the GI50 is 16.9 µM (inactive) in the test on A498; 12.3 µM (inactive) with A549; 7.45 µM in the test on HCT-15; 13 µM (inactive) in the test with HOP-62; 3.21 µM (inactive) in the test on HT-29; 14.7 µM (inactive) in the test with IGROV-1. In addition, the GI50 was 18.1 µM (inactive) with MDA-MB-435; 7.59 µM (inactive) in the test on MOLT-4; 12.3 µM (inactive) with Malme-3M; 6.92 µM (inactive) in the test with NCI-H226; 4.45 µM (inactive) with OVCAR-8; 14 µM (inactive) with PC-3. Also, the GI50 was 13.6 µM (inactive) in the test with SN12C; 8.28 µM (inactive) in the test with SNB-19; 38.5 µM (inactive) with TK-10; 25.2 µM (inactive) with U-251; 8.83 µM (inactive) in the test on UO-31.
Turning to `CCC(/C=C/C1OC(=O)C=CC1C)=C\C(C)C/C=C/C(C)=C/C(C)C(=O)C(C)C(O)C(C)C/C(C)=C/C(=O)O` (centres undefined), the GI50 was 2.08 µM (inactive) with A498; 0.946 µM (active) in the test on A549; 1.28 µM with HCT-15; 2.62 µM (inactive) in the test on HOP-62; 3.01e-06 µM (active) in the test with HT-29; 4.07 µM (inactive) in the test on IGROV-1. For the same molecule, the GI50 with MDA-MB-435 is 2.33e-06 µM (active); with MOLT-4, 1.06 µM (active); with Malme-3M it was 1.44 µM (inactive); in the test with NCI-H226, 1.67 µM (inactive); in the test with OVCAR-8 it was 3.14 µM (inactive); in the test on PC-3, 1.27e-05 µM (active). Moreover, the GI50 in the test with SF-539 was 1.04 µM (active); with SN12C, 2.72 µM (inactive); in the test with SNB-19 it was 3.09 µM (inactive); with TK-10 it was 9.4e-05 µM (active); in the test with U-251 it was 2.26 µM (inactive); in the test with UACC-257 it was 1.62 µM (inactive). In the test with UO-31, the GI50 was 2.35 µM (inactive).
Consider `CCOC(=O)c1c[nH]c(C(=O)OCC)c1-c1cccn1-c1ccccc1`, for which the GI50 in the test on A498 was 27 µM (inactive); with A549, 26.6 µM (inactive); with HCT-15 it was 30.4 µM; in the test with HOP-62, 18.2 µM (inactive); in the test on HT-29, 26.4 µM (inactive); in the test with IGROV-1, 10.7 µM (inactive). Further, the GI50 was 27.5 µM (inactive) in the test on MDA-MB-435; 15.3 µM (inactive) in the test on MOLT-4; 10.8 µM (inactive) with Malme-3M; 15.1 µM (inactive) in the test with NCI-H226; 23 µM (inactive) with NCI-H460; 19.2 µM (inactive) in the test with OVCAR-8. Moreover, the GI50 is 18.7 µM (inactive) in the test on PC-3; 27 µM (inactive) in the test on SN12C; 31.7 µM (inactive) in the test with SNB-19; 36 µM (inactive) in the test with TK-10; 19.2 µM (inactive) with U-251; 26.1 µM (inactive) with UACC-257. Also, the GI50 in the test on UO-31 is 18.4 µM (inactive).
For `NS(=O)(=O)c1ccc(NC(=S)N/C=C2\C(=O)Oc3ccccc3C2=O)cc1`, the GI50 in the test with A498 was 20.5 µM (inactive); in the test with A549, 43 µM (inactive); in the test on HCT-15 it was 39.2 µM; in the test with HOP-62, 20.8 µM (inactive); with HT-29, 53.5 µM (inactive); in the test with IGROV-1 it was 18.9 µM (inactive). Besides, the GI50 with MDA-MB-435 was 43.5 µM (inactive); with MOLT-4, 53 µM (inactive); in the test with NCI-H226, 12.6 µM (inactive); in the test with NCI-H460, 39.1 µM (inactive); in the test on OVCAR-8, 16.2 µM (inactive); in the test with PC-3, 36.1 µM (inactive). Also, the GI50 in the test on SF-539 was 44 µM (inactive); with SN12C, 22.5 µM (inactive); in the test on SNB-19 it was 19 µM (inactive); in the test on TK-10, 28.2 µM (inactive); in the test on U-251, 36.2 µM (inactive); with UACC-257, 67.8 µM (inactive). For the same molecule, in the test on UO-31, the GI50 was 17.6 µM (inactive).
As for `C[N+](C)(CCNc1ccc(NCC[N+](C)(C)Cc2ccc([N+](=O)[O-])cc2)c2c1C(=O)c1c(O)ccc(O)c1C2=O)Cc1ccc([N+](=O)[O-])cc1`, the GI50 in the test on A498 was > 50 µM (inactive); in the test on A549, 28.2 µM (inactive); in the test with HCT-15, 35.8 µM; with HOP-62, > 50 µM (inactive); in the test with HT-29, 17.7 µM (inactive); in the test with IGROV-1, > 50 µM (inactive). Moreover, the GI50 in the test with MDA-MB-435 was > 50 µM (inactive); in the test on MOLT-4, > 5 µM (inactive); in the test with Malme-3M, 30 µM (inactive); in the test with NCI-H460, 3.2 µM (inactive); with OVCAR-8, > 50 µM (inactive); with PC-3 it was 37.8 µM (inactive). The GI50 in the test with SF-539 is 19.1 µM (inactive); in the test with SN12C, > 50 µM (inactive); with TK-10, > 50 µM (inactive); in the test on U-251, > 50 µM (inactive); with UACC-257 it was > 50 µM (inactive); in the test with UO-31, 20.4 µM (inactive).
